One may read the EC50 as the midpoint of the concentration-response curve.

Structures are written as SMILES. Some results are limits rather than exact numbers.

In one assay the test system is HBV rcDNA in HepDE19 cells. The assay is described as follows: HepDE19 assay with bDNA quantitation of HBV rcDNA. It is filed as cell-based, hepatitis B virus (HBV). To be noted: Hepatitis B virus, HepDE19, 168 h, inhibition of rcDNA formation in HepDE19 cells (HepG2 derived), Tet-free medium, 7 day incubation, Quantigene 2.0 bDNA readout, top concentration 25 μM; read-out: DE-19bDNA EC50. An outline of the steps:
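Cytotoxicity run on replicate plates (5,000 cells/well, 4 days, ATP luminescence, CC50), while antiviral plates (50,000 cells/well) received compound for 7 days after tetracycline withdrawal to induce HBV replication. Top dose 25 μM, 8 points, 0.5% DMSO; rcDNA by branched-DNA assay, % inhibition fitted (4-parameter) for EC50 and EC90.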
With `Cc1cc(NC(=O)N(C)C2COCc3[nH]c(=O)c4cc(F)ccc4c32)ccc1F` (stereo not drawn) [Compound 57, 3-(4-Fluoro-3-methylphenyl)-1-(8-fluoro-6-oxo-1,4,5,6-tetrahydro-2H-pyrano[3,4-c]isoquinolin-1-yl)-1-methylurea], the EC50 is 10 nM. For the compound `CN(C(=O)Nc1ccc(F)c(F)c1)C1CCCc2[nH]c(=O)c3cc(F)ccc3c21` (stereo not drawn) [Compound 32, 3-(3,4-Difluorophenyl)-1-(8-fluoro-6-oxo-1,2,3,4,5,6-hexahydrophenanthridin-1-yl)-1-methylurea], the EC50 worked out at 110 nM. As for `CN(C(=O)Nc1ccc(F)c(C(F)F)c1)[C@H]1COCc2[nH]c(=O)c3cc(F)c(F)cc3c21` (single isomer, unassigned) [Compound 125], the EC50 was 490 nM.

For the compound `CN(C(=O)Nc1ccc(F)c(C#N)c1)C1COCc2[nH]c(=O)c3cc(Cl)ccc3c21` (stereo not drawn) [Compound 65, 1-(8-Chloro-6-oxo-1,4,5,6-tetrahydro-2H-pyrano[3,4-c]isoquinolin-1-yl)-3-(3-cyano-4-fluorophenyl)-1-methylurea], the EC50 is 80 nM. For the compound `CN(C(=O)Nc1ccc(F)c(Cl)c1)C1CCCc2[nH]c(=O)c3cc(F)ccc3c21` (stereo not drawn) [Compound 9, 3-(3-Chloro-4-fluorophenyl)-1-(8-fluoro-6-oxo-1,2,3,4,5,6-hexahydrophenanthridin-1-yl)-1-methylurea], the EC50 was 30 nM.

For `O=C(Nc1ccc(F)c(Cl)c1)N(CCCO)C1CCCCc2[nH]c(=O)c3ccccc3c21` (stereo not drawn) [Compound 22, 3-(3-Chloro-4-fluorophenyl)-1-(3-hydroxypropyl)-1-(5-oxo-6,7,8,9,10,11-hexahydro-5H-cyclohepta[c]isoquinolin-11-yl)urea], the EC50 came to 600 nM. For `CN(C(=O)N1Cc2ccc(Cl)cc2C1)C1CNCc2[nH]c(=O)c3cc(F)c(F)cc3c21` (single isomer, unassigned) [Compound 226, 5-Chloro-N-(8,9-difluoro-6-oxo-1,2,3,4,5,6-hexahydrobenzo[c][1,7]naphthyridin-1-yl)-N-methylisoindoline-2-carboxamide], the EC50 was 21000 nM. Turning to `CN(C(=O)Nc1ccc(F)c(Cl)c1)[C@@H]1COCc2[nH]c(=O)c3cc(F)c(F)cc3c21` (single isomer, unassigned) [Compound 72], the 50% effective concentration (EC50) came to 10 nM. For the compound `CN(C(=O)Nc1ccc(F)c(C(F)F)c1)[C@@H]1COCc2c1c1cc(F)c(F)cc1c(=O)n2C` [Compound 233, (S)-1-(8,9-Difluoro-5-methyl-6-oxo-1,4,5,6-tetrahydro-2H-pyrano[3,4-c]isoquinolin-1-yl)-3-(3-(difluoromethyl)-4-fluorophenyl)-1-methylurea], the EC50 worked out at 20 nM. In the case of `CC1Cc2[nH]c(=O)c3ccccc3c2C(N(C)C(=O)Nc2ccc(F)c(Cl)c2)C1` (racemic) [Compound 26, 3-(3-Chloro-4-fluorophenyl)-1-methyl-1-(3-methyl-6-oxo-1,2,3,4,5,6-hexahydrophenanthridin-1-yl)urea], the EC50 amounted to 2900 nM.

As to `CN(C(=O)NC1(C(F)(F)F)CC1)[C@@H]1COCc2[nH]c(=O)c3cc(F)c(F)cc3c21` [Compound 145, (S)-1-(8,9-Difluoro-6-oxo-1,4,5,6-tetrahydro-2H-pyrano[3,4-c]isoquinolin-1-yl)-1-methyl-3-(1-(trifluoromethyl)cyclopropyl)urea], the EC50 stood at 9000 nM.

The assay is the same for the next values; noted with them: inhibition of rcDNA formation in HepDE19 cells (HepG2 derived), Tet-free medium, 7 day incubation, Quantigene 2.0 bDNA readout, top concentration 25 μM; read-out: DE-19bDNA EC50.
With `CNc1nc2c(c3cc(F)c(F)cc13)C(N(C)C(=O)Nc1ccc(F)c(C(F)F)c1)COC2` (single isomer, unassigned) [Compound 235, 1-(8,9-Difluoro-6-(methylamino)-1,4-dihydro-2H-pyrano[3,4-c]isoquinolin-1-yl)-3-(3-(difluoromethyl)-4-fluorophenyl)-1-methylurea], the EC50 came to 1810 nM. Still for that read-out and setting: the value for `CCN(C(=O)Nc1ccc(F)c(Cl)c1)C1CCCc2[nH]c(=O)c3c(c21)CCCC3` (single isomer, unassigned) [Compound 54, 3-(3-Chloro-4-fluorophenyl)-1-ethyl-1-(6-oxo-1,2,3,4,5,6,7,8,9,10-decahydrophenanthridin-1-yl)urea] was 30 nM. Turning to `CN(C(=O)Nc1ccc(F)c(Cl)c1)C1C[S+]([O-])Cc2[nH]c(=O)c3cc(F)c(F)cc3c21` (single isomer, unassigned) [Compound 210, 3-(3-Chloro-4-fluorophenyl)-1-(8,9-difluoro-3-oxido-6-oxo-1,4,5,6-tetrahydro-2H-thiopyrano[3,4-c]isoquinolin-1-yl)-1-methylurea], the EC50 was 7100 nM. The same measure, in the same setting: next, `CN(C(=O)Nc1ccc(F)c(F)c1)C1CCCc2[nH]c(=O)c3c(c21)COCC3` (single isomer, unassigned) [Compound 81, 3-(3,4-Difluorophenyl)-1-methyl-1-(5-oxo-3,4,5,6,7,8,9,10-octahydro-1H-pyrano[4,3-c]quinolin-10-yl)urea]: at least 25000 nM. On the same count and under the same terms, next, `CN(C(=O)Nc1ccc(F)c(Cl)c1)C1C[S+]([O-])Cc2[nH]c(=O)c3cc(F)c(F)cc3c21` (single isomer, unassigned) [Compound 209, 3-(3-Chloro-4-fluorophenyl)-1-(8,9-difluoro-3-oxido-6-oxo-1,4,5,6-tetrahydro-2H-thiopyrano[3,4-c]isoquinolin-1-yl)-1-methylurea]: 700 nM; `Cc1cc(NC(=O)N(CC(C)C)C2COCc3[nH]c(=O)c4cc(F)ccc4c32)ccc1F` (single isomer, unassigned) [Compound 131, 3-(4-Fluoro-3-methylphenyl)-1-(8-fluoro-6-oxo-1,4,5,6-tetrahydro-2H-pyrano[3,4-c]isoquinolin-1-yl)-1-isobutylurea]: 10 nM. Still for that read-out and setting: next, `CN(C(=O)N1Cc2ccc(Br)cc2C1)C1CNCc2[nH]c(=O)c3cc(F)c(F)cc3c21` (single isomer, unassigned) [Compound 229, 5-Bromo-N-(8,9-difluoro-6-oxo-1,2,3,4,5,6-hexahydrobenzo[c][1,7]naphthyridin-1-yl)-N-methylisoindoline-2-carboxamide]: 6700 nM; `CN(C(=O)Nc1ccc(F)c(C(F)F)c1)C1CNCc2[nH]c(=O)c3cc(F)c(F)cc3c21` (single isomer, unassigned) [Compound 217, 1-(8,9-Difluoro-6-oxo-1,2,3,4,5,6-hexahydrobenzo[c][1,7]naphthyridin-1-yl)-3-(3-(difluoromethyl)-4-fluorophenyl)-1-methylurea]: 40 nM; `CN(C(=O)Nc1cc(F)c(F)c(F)c1)C1COCc2[nH]c(=O)c3cc(F)c(F)cc3c21` (single isomer, unassigned) [Compound 134, 1-(8,9-Difluoro-6-oxo-1,4,5,6-tetrahydro-2H-pyrano[3,4-c]isoquinolin-1-yl)-1-methyl-3-(3,4,5-trifluorophenyl)urea]: 990 nM. In the case of `CN(C(=O)Nc1ccc(F)c(F)c1)C1CCCc2[nH]c(=O)c3c(c21)CCOC3` (single isomer, unassigned) [Compound 62, 3-(3,4-Difluorophenyl)-1-methyl-1-(5-oxo-1,4,5,6,7,8,9,10-octahydro-2H-pyrano[3,4-c]quinolin-10-yl)urea], the EC50 amounted to 1300 nM. Regarding `CN(C(=O)Nc1ccc(F)c(C#N)c1)C1CN(CCO)Cc2[nH]c(=O)c3cc(F)ccc3c21` (single isomer, unassigned) [Compound 172, 3-(3-Cyano-4-fluorophenyl)-1-(8-fluoro-3-(2-hydroxyethyl)-6-oxo-1,2,3,4,5,6-hexahydrobenzo[c][1,7]naphthyridin-1-yl)-1-methylurea], the EC50 was found to be 10000 nM. For the compound `CN(C(=O)Nc1cc(F)c(F)c(Cl)c1)C1COCc2[nH]c(=O)c3cc(F)ccc3c21` (single isomer, unassigned) [Compound 108, 3-(3-Chloro-4,5-difluorophenyl)-1-(8-fluoro-6-oxo-1,4,5,6-tetrahydro-2H-pyrano[3,4-c]isoquinolin-1-yl)-1-methylurea], the EC50 stood at 20 nM. Consider `CN(C(=O)Nc1ccc(F)c(C#N)c1)C1C[S+]([O-])Cc2[nH]c(=O)c3cc(F)ccc3c21` (single isomer, unassigned) [Compound 201, 3-(3-Cyano-4-fluorophenyl)-1-(8-fluoro-3-oxido-6-oxo-1,4,5,6-tetrahydro-2H-thiopyrano[3,4-c]isoquinolin-1-yl)-1-methylurea], for which the EC50 was 3600 nM. `CN(C(=O)Nc1ccc(F)c(C#N)c1)C1CSCc2[nH]c(=O)c3cc(F)c(F)cc3c21` (single isomer, unassigned) [Compound 189, 3-(3-Cyano-4-fluorophenyl)-1-(8,9-difluoro-6-oxo-1,4,5,6-tetrahydro-2H-thiopyrano[3,4-c]isoquinolin-1-yl)-1-methylurea]: the EC50 is 880 nM.

The same assay, now with this note: read-out: DE-19bDNA EC50; inhibition of rcDNA formation in HepDE19 cells (HepG2 derived), Tet-free medium, 7 day incubation, Quantigene 2.0 bDNA readout, top concentration 25 μM.
`CN(C(=O)Nc1cccc(Cl)c1)C1COCc2[nH]c(=O)c3cc(F)c(F)cc3c21` (single isomer, unassigned) [Compound 119, 3-(3-Chlorophenyl)-1-(8,9-difluoro-6-oxo-1,4,5,6-tetrahydro-2H-pyrano[3,4-c]isoquinolin-1-yl)-1-methylurea]: the EC50 was determined as 1800 nM.

For `CN(C(=O)N1Cc2ccc(C(F)(F)F)cc2C1)C1CNCc2[nH]c(=O)c3cc(F)c(F)cc3c21` (single isomer, unassigned) [Compound 232, N-(8,9-Difluoro-6-oxo-1,2,3,4,5,6-hexahydrobenzo[c][1,7]naphthyridin-1-yl)-N-methyl-5-(trifluoromethyl)isoindoline-2-carboxamide], the EC50 worked out at 20000 nM.

Source of the values: patent US20230108906A1, “SUBSTITUTED BICYCLIC AND TRICYCLIC UREAS AND AMIDES, ANALOGUES THEREOF, AND METHODS USING SAME” (Arbutus Biopharma Corporation, priority 2019, published 2023).
